What was measured:
[1] = mn = molality of the nth substance listed, in mol/kg; settings: 86.5 kPa, Liquid; for speed of sound: Frequency=3 MHz, Sing-around technique in a fixed-path interferometer; for mass density: Vibrating tube method
[2] = refractive index (Na D-line) (dimensionless); mn = molality of the nth substance listed, in mol/kg; settings: 86.5 kPa, Liquid, Standard Abbe refractometry

CCCCCCCCn1cc[n+](C)c1.[Br-] [1-methyl-3-octylimidazolium bromide] + c1ccsc1
Settings | mass density, [1] [kg/m3] | refractive index, [2] | speed of sound, [1] [m/s]
288.15 K, m2 = 0 | 1179.37 | 1.525 | 1605.2
288.15 K, m2 = 0.0087 | 1179.17 | 1.5248 | 1603.7
288.15 K, m2 = 0.022 | 1178.88 | 1.5245 | 1601.5
288.15 K, m2 = 0.032 | 1178.66 | 1.5242 | 1599.9
288.15 K, m2 = 0.0435 | 1178.43 | 1.524 | 1598.3
288.15 K, m2 = 0.0556 | 1178.18 | 1.5238 | 1596.8
288.15 K, m2 = 0.0663 | 1177.97 | 1.5235 | 1595.7
288.15 K, m2 = 0.0821 | 1177.68 | 1.5232 | 1594.3
288.15 K, m2 = 0.0923 | 1177.49 | 1.5229 | 1593.4
288.15 K, m2 = 0.107 | 1177.22 | 1.5226 | 1592.3
288.15 K, m2 = 0.1464 | 1176.57 | 1.5221 | 1590.2
288.15 K, m2 = 0.1765 | 1176.08 | 1.5216 | 1588.8
293.15 K, m2 = 0 | 1176.17 | 1.5236 | 1581.9
293.15 K, m2 = 0.0087 | 1175.97 | 1.5233 | 1581
293.15 K, m2 = 0.022 | 1175.68 | 1.5231 | 1579.5
293.15 K, m2 = 0.032 | 1175.46 | 1.5228 | 1578.6
293.15 K, m2 = 0.0435 | 1175.23 | 1.5226 | 1577.6
293.15 K, m2 = 0.0556 | 1174.97 | 1.5223 | 1576.5
293.15 K, m2 = 0.0663 | 1174.75 | 1.522 | 1575.7
293.15 K, m2 = 0.0821 | 1174.47 | 1.5217 | 1574.6
293.15 K, m2 = 0.0923 | 1174.27 | 1.5214 | 1573.8
293.15 K, m2 = 0.107 | 1174.01 | 1.5211 | 1572.9
293.15 K, m2 = 0.1464 | 1173.34 | 1.5205 | 1571.1
293.15 K, m2 = 0.1765 | 1172.85 | 1.52 | 1570.2
298.15 K, m2 = 0 | 1172.98 | 1.5221 | 1561.9
298.15 K, m2 = 0.0087 | 1172.78 | 1.5219 | 1561.3
298.15 K, m2 = 0.022 | 1172.48 | 1.5216 | 1560.3
298.15 K, m2 = 0.032 | 1172.27 | 1.5213 | 1559.7
298.15 K, m2 = 0.0435 | 1172.02 | 1.521 | 1558.9
298.15 K, m2 = 0.0556 | 1171.78 | 1.5207 | 1558.2
298.15 K, m2 = 0.0663 | 1171.57 | 1.5203 | 1557.5
298.15 K, m2 = 0.0821 | 1171.26 | 1.52 | 1556.5
298.15 K, m2 = 0.0923 | 1171.07 | 1.5197 | 1555.9
298.15 K, m2 = 0.107 | 1170.8 | 1.5193 | 1555.1
298.15 K, m2 = 0.1464 | 1170.16 | 1.5187 | 1553.5
298.15 K, m2 = 0.1765 | 1169.7 | 1.5181 | 1552.3
303.15 K, m2 = 0 | 1169.86 | 1.5206 | 1542.8
303.15 K, m2 = 0.0087 | 1169.65 | 1.5205 | 1542.3
303.15 K, m2 = 0.022 | 1169.35 | 1.5202 | 1541.6
303.15 K, m2 = 0.032 | 1169.13 | 1.5199 | 1541.1
303.15 K, m2 = 0.0435 | 1168.88 | 1.5196 | 1540.7
303.15 K, m2 = 0.0556 | 1168.64 | 1.5192 | 1540.1
303.15 K, m2 = 0.0663 | 1168.42 | 1.5189 | 1539.6
303.15 K, m2 = 0.0821 | 1168.12 | 1.5185 | 1539.1
303.15 K, m2 = 0.0923 | 1167.93 | 1.5182 | 1538.5
303.15 K, m2 = 0.107 | 1167.67 | 1.5179 | 1538
303.15 K, m2 = 0.1464 | 1167.05 | 1.5171 | 1536.6
303.15 K, m2 = 0.1765 | 1166.59 | 1.5166 | 1535.7

CCCCCCn1cc[n+](C)c1.[Br-] [3-hexyl-1-methyl-1H-imidazolium bromide] + c1ccsc1
Settings | mass density, [1] [kg/m3] | refractive index, [2] | speed of sound, [1] [m/s]
288.15 K, m2 = 0 | 1231.02 | 1.5282 | 1639.4
288.15 K, m2 = 0.0186 | 1230.37 | 1.5277 | 1638.2
288.15 K, m2 = 0.0221 | 1230.25 | 1.5276 | 1638
288.15 K, m2 = 0.0358 | 1229.81 | 1.5273 | 1637.2
288.15 K, m2 = 0.0433 | 1229.58 | 1.5271 | 1636.8
288.15 K, m2 = 0.0632 | 1228.97 | 1.5266 | 1635.7
288.15 K, m2 = 0.0727 | 1228.69 | 1.5264 | 1635.2
288.15 K, m2 = 0.0952 | 1228.1 | 1.5259 | 1634
288.15 K, m2 = 0.1142 | 1227.69 | 1.5255 | 1633
288.15 K, m2 = 0.137 | 1227.21 | 1.5251 | 1631.7
288.15 K, m2 = 0.1603 | 1226.74 | 1.5247 | 1630.7
288.15 K, m2 = 0.1869 | 1226.31 | 1.5242 | 1629.8
293.15 K, m2 = 0 | 1227.43 | 1.5268 | 1610.4
293.15 K, m2 = 0.0186 | 1226.77 | 1.5261 | 1609.5
293.15 K, m2 = 0.0221 | 1226.65 | 1.526 | 1609.3
293.15 K, m2 = 0.0358 | 1226.19 | 1.5257 | 1608.7
293.15 K, m2 = 0.0433 | 1225.96 | 1.5255 | 1608.4
293.15 K, m2 = 0.0632 | 1225.37 | 1.5251 | 1607.5
293.15 K, m2 = 0.0727 | 1225.11 | 1.5249 | 1607.1
293.15 K, m2 = 0.0952 | 1224.52 | 1.5244 | 1606.1
293.15 K, m2 = 0.1142 | 1224.09 | 1.524 | 1605.5
293.15 K, m2 = 0.137 | 1223.63 | 1.5234 | 1604.5
293.15 K, m2 = 0.1603 | 1223.19 | 1.5228 | 1603.7
293.15 K, m2 = 0.1869 | 1222.77 | 1.5223 | 1602.9
298.15 K, m2 = 0 | 1223.74 | 1.5254 | 1587.1
298.15 K, m2 = 0.0186 | 1223.07 | 1.5247 | 1586.3
298.15 K, m2 = 0.0221 | 1222.95 | 1.5246 | 1586.2
298.15 K, m2 = 0.0358 | 1222.49 | 1.5242 | 1585.7
298.15 K, m2 = 0.0433 | 1222.25 | 1.5239 | 1585.4
298.15 K, m2 = 0.0632 | 1221.65 | 1.5233 | 1584.6
298.15 K, m2 = 0.0727 | 1221.38 | 1.523 | 1584.3
298.15 K, m2 = 0.0952 | 1220.8 | 1.5224 | 1583.6
298.15 K, m2 = 0.1142 | 1220.33 | 1.5219 | 1582.9
298.15 K, m2 = 0.137 | 1219.88 | 1.5213 | 1582.2
298.15 K, m2 = 0.1603 | 1219.44 | 1.5208 | 1581.7
298.15 K, m2 = 0.1869 | 1219 | 1.5201 | 1581
303.15 K, m2 = 0 | 1220.35 | 1.5237 | 1568.7
303.15 K, m2 = 0.0186 | 1219.67 | 1.5227 | 1568.1
303.15 K, m2 = 0.0221 | 1219.55 | 1.5226 | 1568
303.15 K, m2 = 0.0358 | 1219.09 | 1.5223 | 1567.6
303.15 K, m2 = 0.0433 | 1218.84 | 1.5221 | 1567.4
303.15 K, m2 = 0.0632 | 1218.25 | 1.5217 | 1566.8
303.15 K, m2 = 0.0727 | 1217.98 | 1.5215 | 1566.6
303.15 K, m2 = 0.0952 | 1217.4 | 1.5211 | 1566
303.15 K, m2 = 0.1142 | 1216.96 | 1.5207 | 1565.5
303.15 K, m2 = 0.137 | 1216.51 | 1.5202 | 1564.9
303.15 K, m2 = 0.1603 | 1216.07 | 1.5197 | 1564.5
303.15 K, m2 = 0.1869 | 1215.66 | 1.5191 | 1564

Reference: the NIST ThermoML archive (doi:10.1016/j.jct.2015.12.031)
